Test results taken from PubChem BioAssay (NCI).
“And” between values parts separate entries of the source, which are not always exact repeats. Equal values may be shown once.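 Step 1: Grow cells in 96-well plates. Step 2: Expose to compound for 48 hours at 5 concentrations. Step 3: Interpolate endpoints linearly; if unreached, use highest concentration. Here, GI50 denotes the concentration required for 50% inhibition of growth. At the TGI there is no net growth.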

How the values were obtained:
Assay in all cases: NCI anticancer screen, dose series, 48 h
CAKI-1 renal = system: CAKI-1 renal
OVCAR-3 ovarian = system: OVCAR-3 ovarian
RPMI-8226 leukemia = system: RPMI-8226 leukemia
RXF 393 renal = system: RXF 393 renal
SR leukemia = system: SR leukemia
BT-549 breast = system: BT-549 breast
MCF7 breast = system: MCF7 breast
MDA-MB-231 breast = system: MDA-MB-231 breast
PC-3 prostate = system: PC-3 prostate
NCI-H522 lung = system: NCI-H522 lung

SMILES	TGI (CAKI-1 renal)	TGI (OVCAR-3 ovarian)	TGI (RPMI-8226 leukemia)	TGI (RXF 393 renal)	TGI (SR leukemia)	GI50 (BT-549 breast)	TGI (BT-549 breast)	GI50 (CAKI-1 renal)	GI50 (MCF7 breast)	TGI (MCF7 breast)	GI50 (MDA-MB-231 breast)	TGI (MDA-MB-231 breast)	GI50 (OVCAR-3 ovarian)	GI50 (PC-3 prostate)	TGI (PC-3 prostate)	GI50 (RPMI-8226 leukemia)	GI50 (RXF 393 renal)	GI50 (SR leukemia)	GI50 (NCI-H522 lung)	TGI (NCI-H522 lung)
O=C(Nc1nc2ccc([N+](=O)[O-])cc2s1)C(=O)C(C1OC(=O)c2ccccc21)[N+](=O)[O-] (stereo not given)	> 100 µM	> 100 µM	> 100 µM	> 100 µM	> 100 µM	–	–	–	–	–	–	–	–	–	–	–	–	–	–	–
CCC(=O)[C@H](C)[C@@H](OC(=O)[C@H](C)CC)[C@H](C)[C@H]1OC(CC)=C(C)C(=O)[C@@H]1C	52 µM	36.8 µM	35.1 µM	46.4 µM	42.3 µM	16.6 µM	34.9 µM	21.2 µM	26.3 µM	89 µM	13.3 µM	30.9 µM	17.4 µM	16.8 µM	> 100 µM	10.1 µM	21.5 µM	13.5 µM	–	–
O=C(Nc1ccc(F)cc1)Nc1ccc(Cl)c([N+](=O)[O-])c1	–	19.1 µM	8.58 µM	6.71 µM	> 100 µM	2.9 µM	10.8 µM	–	2.66 µM	11.9 µM	2.54 µM	6.46 µM	3.81 µM	1.6 µM	11.1 µM	1.89 µM	1.75 µM	3.41 µM	2.44 µM	10.8 µM
Nc1ccccc1S(=O)(=O)N(CC(=O)O)c1ccccc1	> 100 µM	–	> 100 µM	> 100 µM	–	–	–	–	–	–	–	–	–	–	–	–	–	–	–	> 100 µM
C=CCO[C@H]1CO[C@H]2[C@@H]1OC[C@@H]2Oc1ccc(Nc2ccnc(Nc3ccc(O[C@H]4CO[C@H]5[C@@H]4OC[C@@H]5OCC=C)c(Cl)c3)n2)cc1Cl	3.1 µM	3.25 µM	–	3.1 µM	–	1.6 µM	3.11 µM	1.73 µM	1.56 µM	3.38 µM	1.69 µM	3.23 µM	1.81 µM	–	–	–	1.69 µM	–	1.96 µM	4.24 µM
CCCCCCCCCCCCCC(=O)OC(/C=C/C(C)C)C(O)C(O)C(OC)C(=O)NC1CCCCN(C)C1=O (stereo not given)	7.51 µM	8.03 µM and > 49 µM	9.97 µM and > 49 µM	6.22 µM and > 49 µM	4.78 µM and 5.75 µM	–	–	–	–	–	–	–	–	–	–	> 49 µM	> 49 µM	1.12 µM	–	6.67 µM and > 49 µM
CCC[CH2][Sn]([CH2]CCC)([S]c1cccc2cccnc12)[S]c1cccc2cccnc12	0.342 µM	0.228 µM	–	–	–	–	–	0.123 µM	–	–	–	–	0.0703 µM	–	–	–	–	–	–	–
Cc1nc2sccn2c1-c1csc(Nc2ccccc2Cl)n1	40.7 µM	19.1 µM	19.1 µM	7.09 µM	–	3.6 µM	23.4 µM	3.06 µM	2.81 µM	23 µM	3.33 µM	27 µM	3.18 µM	4.09 µM	37.5 µM	1.93 µM	1.9 µM	–	2.08 µM	15.7 µM
O=C(O)CCNCCCNCCC(=O)O	> 100 µM	> 100 µM	> 100 µM	> 100 µM	–	–	–	–	–	–	–	–	–	–	–	–	–	–	–	> 100 µM
Cc1c(C(=O)CC(=O)C(=O)Nc2ccccc2C(F)(F)F)[n+](=O)c2ccccc2n1[O-]	> 100 µM	8.37 µM	24.2 µM	80.1 µM	26.6 µM	–	–	–	–	–	–	–	–	–	–	–	–	–	–	35.8 µM
COC(=O)CC[N+]1=CCC(c2ccccc2)(c2ccccc2)O1	> 100 µM	> 100 µM	–	> 100 µM	–	–	> 100 µM	–	–	> 100 µM	–	> 100 µM	–	–	> 100 µM	–	–	–	–	> 100 µM
OCc1cc2ccccc2c2c3c(ccc12)OCO3	188 µM	168 µM	94.4 µM	–	76.8 µM	27.1 µM	76.3 µM	29.3 µM	26.5 µM	125 µM	29.1 µM	175 µM	36.4 µM	25.4 µM	140 µM	26.2 µM	–	28.4 µM	–	–
Cc1cnc(NCCCN(C)C)c2c1[nH]c1ccc3cc(O)ccc3c12	4.18 µM	1.59 µM	10.1 µM	2.16 µM	–	–	3.12 µM	–	–	2.15 µM	–	2.83 µM	–	–	2.21 µM	–	–	–	–	0.624 µM
FC(F)(F)c1cccc(Nc2nc(-c3ccccc3)nc3ncccc23)c1	18.7 µM	28 µM	9.16 µM	5.66 µM	13.3 µM	5.52 µM	30.6 µM	3.86 µM	3.72 µM	14.7 µM	4.88 µM	41.2 µM	5.2 µM	3.34 µM	13.2 µM	3.09 µM	2.21 µM	2.61 µM	–	–
CCN(CC)N=Nc1c(C(N)=O)n[nH]c1C	> 100 µM	> 100 µM	> 100 µM	> 100 µM	–	–	> 100 µM	–	–	> 100 µM	–	> 100 µM	–	–	> 100 µM	–	–	–	–	> 100 µM
COc1ccccc1N1C(=O)C2c3[nH]c4ccccc4c3C3CCC(C(C)(C)C)CC3C2C1=O (stereo not given)	–	–	> 100 µM	> 100 µM	> 100 µM	–	–	–	–	–	–	–	–	–	–	–	–	–	–	> 100 µM
CNC(=S)OCCC(C)CCCC(C)C (stereo not given)	31.7 µM	–	26.8 µM	30.3 µM	31.9 µM	–	–	–	–	–	–	–	–	–	–	–	–	–	–	–
CC1(C(=O)O)CCC[C@@]2(C)C1CC[C@@]1(C)c3cocc3CCC21 (stereo not given in full)	> 100 µM	> 100 µM	> 100 µM	> 100 µM	> 100 µM	–	–	–	–	–	–	–	–	–	–	–	–	–	–	–
Cc1cc(N(CCC#N)CCC#N)ccc1N=Nc1ccc(S(N)(=O)=O)cc1	> 100 µM	> 100 µM	> 100 µM	> 100 µM	–	–	–	–	–	–	–	–	–	–	–	–	–	–	–	> 100 µM
Cc1ccc(Cl)c2c(N=Nc3ccccc3[N+](=O)[O-])c(O)[nH]c12	> 100 µM	> 100 µM	> 100 µM	> 100 µM	> 100 µM	–	–	–	–	> 100 µM	–	> 100 µM	–	–	> 100 µM	–	–	–	–	–
NS(=O)(=O)c1ccc2c(c1)OCCOCCOCCOCCO2	> 100 µM	–	> 100 µM	–	> 100 µM	–	> 100 µM	–	–	> 100 µM	–	> 100 µM	–	–	> 100 µM	–	–	–	–	> 100 µM
